For the test, the target named is Human RET kinase (Homo sapiens (Human), UniProt P07949, C634W). Nature of the test: RET kinase cell-based mechanistic assay (constitutive RET kinase phosphorylation in TT cells). To be noted: 2 h treatment, phospho-RET ELISA. On the procedure: RET Kinase Cell-Based Mechanistic Assay
The potency of the compounds of the invention were tested for its ability to inhibit constitutive RET kinase phosphorylation in cell-based assay. TT cells (ATCC CRL-1803), a medullary thyroid cancer cell line with constitutively activated RET kinase, were maintained in 150 cm^2 dishes in F12 Kaighn's medium, 10% fetal bovine serum, 1× Glutamax, 1× non-essential amino acids, 1× Pen/Strep antibiotics at 37° C. in 5% carbon dioxide. 1.0E5 TT cells/well were plated in a 96-well cell culture plate and allowed to adhere overnight. […] Plates were washed 4× with 200 μL of 1×PBS; 0.05% Tween-20, 100 μL of TMB (3,3′,5,5″-tetramethylbenzidine) substrate (Cell Signaling #7004) was added, incubated for 10 minutes at 37° C., 100 μL of Stop solution (Cell Signaling #7002) was added and absorbance read on a spectrophotometer at 450 nm. […]

Human RET kinase, sequence (P07949 29-1114 C634W): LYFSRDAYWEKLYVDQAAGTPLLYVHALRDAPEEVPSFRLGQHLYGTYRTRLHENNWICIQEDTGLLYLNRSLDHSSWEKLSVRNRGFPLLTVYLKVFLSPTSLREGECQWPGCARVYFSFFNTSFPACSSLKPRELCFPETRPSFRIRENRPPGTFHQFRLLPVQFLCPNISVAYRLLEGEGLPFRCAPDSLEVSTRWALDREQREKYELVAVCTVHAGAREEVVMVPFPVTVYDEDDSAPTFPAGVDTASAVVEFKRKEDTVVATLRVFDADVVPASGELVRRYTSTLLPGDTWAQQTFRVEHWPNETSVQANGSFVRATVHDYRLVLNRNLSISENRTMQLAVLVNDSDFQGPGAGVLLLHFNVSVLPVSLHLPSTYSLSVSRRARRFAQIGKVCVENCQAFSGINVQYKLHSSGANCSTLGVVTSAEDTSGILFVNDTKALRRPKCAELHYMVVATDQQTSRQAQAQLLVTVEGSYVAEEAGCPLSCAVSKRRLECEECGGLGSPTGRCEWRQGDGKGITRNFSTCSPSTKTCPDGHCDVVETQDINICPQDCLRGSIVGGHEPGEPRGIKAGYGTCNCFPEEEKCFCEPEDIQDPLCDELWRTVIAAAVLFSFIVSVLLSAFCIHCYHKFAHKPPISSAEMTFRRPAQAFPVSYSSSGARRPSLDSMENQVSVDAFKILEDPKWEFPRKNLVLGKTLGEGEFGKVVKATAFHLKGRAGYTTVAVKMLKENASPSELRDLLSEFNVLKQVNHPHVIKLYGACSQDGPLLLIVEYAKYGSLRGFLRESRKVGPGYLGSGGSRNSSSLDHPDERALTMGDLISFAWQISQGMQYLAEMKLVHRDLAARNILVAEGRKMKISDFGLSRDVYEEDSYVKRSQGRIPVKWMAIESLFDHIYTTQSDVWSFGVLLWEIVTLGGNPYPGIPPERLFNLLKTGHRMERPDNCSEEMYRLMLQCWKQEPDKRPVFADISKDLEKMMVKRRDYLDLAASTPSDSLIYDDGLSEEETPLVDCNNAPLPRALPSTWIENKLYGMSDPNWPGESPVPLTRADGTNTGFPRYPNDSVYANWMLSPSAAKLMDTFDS

`CCOc1cc(=O)[nH]cc1-c1ccc(CC(=O)Nc2cc(C(=O)NCCN(C)C)cc(C(F)(F)F)c2)c(F)c1` [Example 1, N-(2-(dimethylamino)ethyl)-3-(2-(4-(4-ethoxy-6-oxo-1,6-dihydropyridin-3-yl)-2-fluorophenyl)acetamido)-5-(trifluoromethyl)benzamide] gave an IC50 of 10 to 100 nM. Consider `CCOc1cc(=O)[nH]cc1-c1ccc(CC(=O)Nc2cc(OCCN(C)C)cc(C(F)(F)F)c2)c(F)c1` [Example 2, N-(3-(2-(dimethylamino)ethoxy)-5-(trifluoromethyl)phenyl)-2-(4-(4-ethoxy-6-oxo-1,6-dihydropyridin-3-yl)-2-fluorophenyl)acetamide], for which the IC50 was 10 to 100 nM.

The values above are taken from US9918974B2, “Pyridone derivatives as rearranged during transfection (RET) kinase inhibitors” (GlaxoSmithKline Intellectual Property Development Limited, priority 2014, dated 2018).
